In patent US6515001B2, “IL-8 receptor ligands-drugs for inflammatory and autoimmune diseases” (Chemokine Therapeutic Corporation, priority 2001, dated 2003):

Key:
[1] = target: IL-8 receptors (CXCR-1 and CXCR-2); experiment: Inhibition of binding of I125 labeled IL-8 to IL-8 receptors; details: I125 labeled IL-8 as competitor; read-out: IC50, inhibition of binding of IL-8 to CXCR-1 and/or CXCR-2
Experimental: This example discloses the ability of compounds of the invention, such as benzopyrone derivatives, such as CTCM192 (1), to inhibit binding of IL-8 to IL-8 receptors (CXCR-1 and CXCR-2). The binding studies were conducted using I^125 labeled IL-8 as competitor.

[2] = system: IL-8-induced [Ca2+]i mobilization in THP1 cells; experiment: Inhibition of IL-8-induced intracellular [Ca2+]i mobilization in THP1 cells; assay type: cell-based; details: Homo sapiens, THP-1; Fura-2,AM loaded THP1 cells, incubated 60 min prior to induction by 12 nM IL-8
Experimental: A rapid, transient rise in the free cytosolic Ca^2+ concentration ([Ca^2+])i) is one of the events associated with the Chemokine mediated induction of the associated receptors and is assumed to be involved in many of the subsequent cellular reactions. Both Ca^2+ release from intracellular stores and Ca^2+ influx from the extracellular space contribute to the rise in [Ca^2+]i. […] Fura-2,AM loaded THP1 cells were incubated with CTCM192 for 60 min prior to induction of [Ca^2+]i mobilization by 12 nM IL-8. Results illustrate the effect of CTCM192 (1) on IL-8-induced Ca^2+ mobilization.
In accordance with this aspect of the invention, the benzopyrone derivative, Geetokine, such as compound 1 or corresponding salts may be used for the treatment of a wide range of inflammatory diseases such as gout, arthritis osteoarthritis, rheumatoid arthritis, and ARDS.

## Cc1csc(-c2coc3cc(OC(=O)C(Cc4ccccc4)NC(=O)OCc4ccccc4)cc(C)c3c2=O)n1 (centres unmarked) [Compound 1, [7-[5-methylbenzopyrone-5′(3′-methyl)-thiazole]-phenylalanine-benyl ester]]
[1]
  IC50: 45 µM
[2]
  IC50: 0.34 µM
